ChEMBL document CHEMBL1201862, “PubChem BioAssay data set” (2004)
Active and inactive are the calls of the source.

Experiments:
[1] = molecular target: T1, Trace amine-associated receptor 1 (Homo sapiens, UniProt Q96RJ0); assay: Fluorescence-based cell-based high throughput dose response assay to identify antagonists of the human trace amine associated receptor 1 (TAAR1).; format: functional
T1 sequence (Q96RJ0 whole entry): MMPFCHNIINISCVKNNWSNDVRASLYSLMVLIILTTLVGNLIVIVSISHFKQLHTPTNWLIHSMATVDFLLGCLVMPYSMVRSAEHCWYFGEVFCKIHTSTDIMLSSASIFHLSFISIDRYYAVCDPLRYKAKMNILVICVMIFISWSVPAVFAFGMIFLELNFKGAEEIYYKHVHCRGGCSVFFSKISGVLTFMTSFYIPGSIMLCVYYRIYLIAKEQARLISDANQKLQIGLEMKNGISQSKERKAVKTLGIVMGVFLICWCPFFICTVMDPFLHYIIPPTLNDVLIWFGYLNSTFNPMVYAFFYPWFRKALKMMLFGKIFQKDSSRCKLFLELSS

H4 = assay: Luminescence Cell-Based Dose Response HTS to Identify Activators of 5'UTR Stem-Loop Driven Prion Protein mRNA Translation in H4 Neuroglioblastoma Cells. [Related pubchem assays: 1829 (Project Summary), 1814 (Primary HTS)]; format: functional; conditions: Homo sapiens
[2] = Luminescence Cell-Based Dose Response HTS to Identify Activators of Luciferase Translation or Activity in H4 […] Cells. [Related pubchem assays: 1829 (Project Summary), 1814 (Primary HTS)]; format: functional
[3] = molecular target: T2, Aryl hydrocarbon receptor (Homo sapiens, UniProt P35869); assay: Luminescence-based cell-based high throughput dose response assay for activators of the Aryl Hydrocarbon Receptor (AHR). [Related pubchem assays: 2796 (Primary screen (AHR activators in singlicate)), 2845 (Confirmation screen (AHR activators in triplicate)), 434939 (Counterscreen (PXR activators in triplicate)), 2804 (Summary (AHR activators))]; format: ADME
T2 sequence (P35869 whole entry): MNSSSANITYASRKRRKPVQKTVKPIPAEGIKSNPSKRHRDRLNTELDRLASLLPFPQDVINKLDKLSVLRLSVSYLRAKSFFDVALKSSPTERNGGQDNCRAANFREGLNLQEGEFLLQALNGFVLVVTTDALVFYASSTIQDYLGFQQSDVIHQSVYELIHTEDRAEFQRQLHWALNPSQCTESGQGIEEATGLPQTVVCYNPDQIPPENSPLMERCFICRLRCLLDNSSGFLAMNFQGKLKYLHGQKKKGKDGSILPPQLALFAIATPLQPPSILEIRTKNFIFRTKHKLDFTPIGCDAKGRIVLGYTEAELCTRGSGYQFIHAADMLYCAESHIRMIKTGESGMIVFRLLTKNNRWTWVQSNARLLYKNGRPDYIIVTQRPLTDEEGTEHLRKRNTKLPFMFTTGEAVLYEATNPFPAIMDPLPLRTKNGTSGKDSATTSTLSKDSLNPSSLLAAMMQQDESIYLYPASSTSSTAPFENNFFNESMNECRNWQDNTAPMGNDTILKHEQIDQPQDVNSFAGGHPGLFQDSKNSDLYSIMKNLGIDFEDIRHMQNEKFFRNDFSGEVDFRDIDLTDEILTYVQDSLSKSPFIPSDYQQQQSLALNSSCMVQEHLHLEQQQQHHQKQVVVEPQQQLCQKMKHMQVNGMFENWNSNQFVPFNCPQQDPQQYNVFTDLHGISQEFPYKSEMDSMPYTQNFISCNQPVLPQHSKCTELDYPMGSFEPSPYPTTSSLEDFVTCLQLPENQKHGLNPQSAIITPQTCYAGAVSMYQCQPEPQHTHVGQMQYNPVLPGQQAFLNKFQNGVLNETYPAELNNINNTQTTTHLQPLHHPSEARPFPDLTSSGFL

[4] = Counterscreen for […] of the human trace amine associated receptor 1 (TAAR1): Fluorescence-based cell-based high throughput dose response assay to identify nonselective Ga16 agonists.; format: functional
[5] = Counterscreen for antagonists of the human trace amine associated receptor 1 (hTAAR1): Fluorescence-based cell-based high throughput dose response assay to identify nonselective Ga16 antagonists.; format: functional
[6] = molecular target: T1, Trace amine-associated receptor 1; assay: Counterscreen for antagonists of the human trace amine associated receptor 1 (hTAAR1): Fluorescence-based cell-based high throughput dose response assay to identify TAAR1 Agonists.; format: functional
[7] = Fluorescence-based cell-based high throughput dose response assay for inhibitors of the interaction of nucleotide-binding oligomerization domain containing 2 (NOD2) and the receptor-interacting serine-threonine kinase 2 (RIPK2).; format: functional; conditions: Homo sapiens
Coagulation factor XII = molecular target: T3, Coagulation factor XII (Homo sapiens, UniProt P00748); format: functional;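 further: activated factor XIIa alpha cleaving a fluorogenic AMC peptide substrate; inhibitor potency from loss of enzyme activity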
T3 sequence (P00748 whole entry): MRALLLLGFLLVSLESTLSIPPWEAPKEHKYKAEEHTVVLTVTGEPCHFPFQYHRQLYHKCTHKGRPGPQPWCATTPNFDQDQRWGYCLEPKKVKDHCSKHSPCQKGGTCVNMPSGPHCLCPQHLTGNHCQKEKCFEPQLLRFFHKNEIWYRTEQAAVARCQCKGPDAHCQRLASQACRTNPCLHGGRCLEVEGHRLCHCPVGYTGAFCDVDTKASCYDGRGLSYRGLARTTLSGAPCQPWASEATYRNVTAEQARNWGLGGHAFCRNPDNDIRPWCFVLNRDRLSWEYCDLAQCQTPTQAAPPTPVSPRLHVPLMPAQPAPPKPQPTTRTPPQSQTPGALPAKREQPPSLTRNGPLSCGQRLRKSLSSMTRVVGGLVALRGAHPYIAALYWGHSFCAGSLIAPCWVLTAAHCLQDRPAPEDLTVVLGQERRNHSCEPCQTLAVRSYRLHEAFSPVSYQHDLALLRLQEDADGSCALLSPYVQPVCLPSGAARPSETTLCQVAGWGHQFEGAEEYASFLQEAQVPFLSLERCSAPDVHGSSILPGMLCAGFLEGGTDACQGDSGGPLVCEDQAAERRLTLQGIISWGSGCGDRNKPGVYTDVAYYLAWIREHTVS

Beta-lactamase [8] = molecular target: T4, Beta-lactamase (Pseudomonas aeruginosa, UniProt Q79MP6); assay: […] counterscreen for selective VIM-2 inhibitors: dose response biochemical high throughput screening assay to identify inhibitors of IMP-1 metallo-beta-lactamase.
T4 sequence (Q79MP6 whole entry): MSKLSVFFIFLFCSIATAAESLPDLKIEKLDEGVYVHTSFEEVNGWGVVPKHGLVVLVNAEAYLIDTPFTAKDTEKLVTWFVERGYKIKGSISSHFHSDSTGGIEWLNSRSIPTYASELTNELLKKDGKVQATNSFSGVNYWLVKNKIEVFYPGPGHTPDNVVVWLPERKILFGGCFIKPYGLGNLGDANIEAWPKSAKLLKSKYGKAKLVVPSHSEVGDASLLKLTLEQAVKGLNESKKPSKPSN

Beta-lactamase [9] = molecular target: T5, Beta-lactamase (Salmonella choleraesuis (strain SC-B67), UniProt Q5J463); assay: Epi-absorbance-based counterscreen for selective VIM-2 inhibitors: dose response biochemical high throughput screening assay to identify inhibitors of TEM-1 serine-beta-lactamase.
T5 sequence (Q5J463 whole entry): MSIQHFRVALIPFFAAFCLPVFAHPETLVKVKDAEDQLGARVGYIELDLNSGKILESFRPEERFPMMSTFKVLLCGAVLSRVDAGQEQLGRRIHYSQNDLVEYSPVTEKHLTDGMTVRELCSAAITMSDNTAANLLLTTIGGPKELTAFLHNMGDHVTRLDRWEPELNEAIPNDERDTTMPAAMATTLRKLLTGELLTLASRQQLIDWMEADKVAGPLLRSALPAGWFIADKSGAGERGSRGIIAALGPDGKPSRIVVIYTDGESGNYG

Beta-lactamase [10] = molecular target: T4, Beta-lactamase; assay: inhibition of IMP-1 beta-lactamase activity – biochemical, epi-absorbance, selectivity assay for VIM-2 inhibitor project, dose response (AID 1920)
[11] = viability loss in HEK293T cells – cell-based, cherry-picks, cytotoxicity control for HIV Vif inhibitor project, dose response (AID 652208); format: functional
[12] = Luminescence Cell-Based Dose Retest to Confirm Inhibitors of Cancer Stem Cells. [Related pubchem assays (depositor defined):AID2717, AID2721]; format: functional; conditions: Homo sapiens
Beta-lactamase [13] = molecular target: T5, Beta-lactamase
Beta-lactamase [14] = molecular target: T4, Beta-lactamase
Vero = assay: viability loss in Vero cells – cell-based, plate reader, cherry-pick samples, cytotoxicity control, dose response (AID 687020); format: functional; conditions: Chlorocebus sabaeus
[15] = molecular target: T6, Sentrin-specific protease 1 (Homo sapiens, UniProt Q9P0U3); assay: Dose response confirmation of small molecule inhibitors of the catalytic domain of the SUMO protease, SENP1 in a FRET assay.; format: functional; conditions: read-out: IC50_Mean
T6 sequence (Q9P0U3 whole entry, the tested form may be a part): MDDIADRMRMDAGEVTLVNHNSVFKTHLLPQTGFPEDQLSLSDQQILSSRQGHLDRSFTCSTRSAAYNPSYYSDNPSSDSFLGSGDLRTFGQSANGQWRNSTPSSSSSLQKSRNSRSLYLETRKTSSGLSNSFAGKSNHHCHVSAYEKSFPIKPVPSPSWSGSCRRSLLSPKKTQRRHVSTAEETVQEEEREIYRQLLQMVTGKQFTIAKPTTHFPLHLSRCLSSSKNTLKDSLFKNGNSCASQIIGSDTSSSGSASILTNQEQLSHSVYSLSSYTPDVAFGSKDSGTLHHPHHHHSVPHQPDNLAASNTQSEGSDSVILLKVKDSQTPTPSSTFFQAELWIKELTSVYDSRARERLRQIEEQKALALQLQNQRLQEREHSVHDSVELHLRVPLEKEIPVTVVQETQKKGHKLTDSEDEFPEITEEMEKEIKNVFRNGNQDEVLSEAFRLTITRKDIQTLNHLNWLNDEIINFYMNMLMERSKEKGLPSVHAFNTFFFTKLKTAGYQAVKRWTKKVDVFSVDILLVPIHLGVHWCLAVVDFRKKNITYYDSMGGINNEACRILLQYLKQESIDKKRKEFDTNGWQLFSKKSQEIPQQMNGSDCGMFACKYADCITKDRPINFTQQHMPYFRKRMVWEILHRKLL

[16] = molecular target: T6, Sentrin-specific protease 1; assay: SENP1 catalytic domain blockers, concentration series – biochemical, kinetic FRET, dose response (AID 651697); format: functional; conditions: read-out: IC50_Mean
[17] = molecular target: 1-phosphatidylinositol 4,5-bisphosphate phosphodiesterase beta-3 (Homo sapiens, UniProt Q01970); assay: Fluorescence-based biochemical high throughput dose response assay to identify inhibitors of phospholipase C isozymes (PLC-B3).
Sequence of 1-phosphatidylinositol 4,5-bisphosphate phosphodiesterase beta-3 (Q01970 whole entry): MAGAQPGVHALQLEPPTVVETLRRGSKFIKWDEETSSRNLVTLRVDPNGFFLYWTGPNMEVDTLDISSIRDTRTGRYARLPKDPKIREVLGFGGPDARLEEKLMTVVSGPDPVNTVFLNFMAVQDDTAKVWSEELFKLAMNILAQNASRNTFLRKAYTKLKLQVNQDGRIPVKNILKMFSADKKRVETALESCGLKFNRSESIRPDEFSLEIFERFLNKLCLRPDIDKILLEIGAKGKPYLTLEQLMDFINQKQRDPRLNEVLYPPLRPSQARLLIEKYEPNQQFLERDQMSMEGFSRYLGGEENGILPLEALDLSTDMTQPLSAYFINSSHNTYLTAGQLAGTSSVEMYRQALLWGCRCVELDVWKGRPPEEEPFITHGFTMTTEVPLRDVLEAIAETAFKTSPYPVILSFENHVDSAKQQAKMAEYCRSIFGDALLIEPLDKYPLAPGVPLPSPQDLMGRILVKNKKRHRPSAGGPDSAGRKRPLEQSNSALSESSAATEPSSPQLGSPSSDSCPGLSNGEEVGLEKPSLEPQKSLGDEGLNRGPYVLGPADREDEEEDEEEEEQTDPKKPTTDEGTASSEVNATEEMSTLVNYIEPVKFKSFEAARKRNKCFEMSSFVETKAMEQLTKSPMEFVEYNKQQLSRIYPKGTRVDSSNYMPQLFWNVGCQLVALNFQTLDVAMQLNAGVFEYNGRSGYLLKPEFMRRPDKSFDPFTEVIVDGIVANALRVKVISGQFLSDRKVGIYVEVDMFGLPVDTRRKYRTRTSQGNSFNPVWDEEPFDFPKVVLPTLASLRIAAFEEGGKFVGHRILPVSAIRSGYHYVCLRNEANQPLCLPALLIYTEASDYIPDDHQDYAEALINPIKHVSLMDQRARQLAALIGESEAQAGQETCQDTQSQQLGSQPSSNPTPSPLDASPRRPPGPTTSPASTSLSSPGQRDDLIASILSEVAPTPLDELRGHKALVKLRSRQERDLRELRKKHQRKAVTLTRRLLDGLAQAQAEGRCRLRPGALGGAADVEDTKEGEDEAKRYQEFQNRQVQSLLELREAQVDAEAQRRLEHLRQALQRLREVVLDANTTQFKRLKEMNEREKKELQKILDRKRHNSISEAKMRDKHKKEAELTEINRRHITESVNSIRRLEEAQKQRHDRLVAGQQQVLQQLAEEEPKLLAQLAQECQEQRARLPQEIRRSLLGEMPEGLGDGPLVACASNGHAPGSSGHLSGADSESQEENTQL

[18] = molecular target: 1-phosphatidylinositol 4,5-bisphosphate phosphodiesterase gamma-1 (Homo sapiens, UniProt P19174); assay: Counterscreen for inhibitors of phospholipase C isozymes (PLC-B3): Fluorescence-based biochemical high throughput dose response assay to identify inhibitors of phospholipase C isozymes (PLC-gamma1).
Sequence of 1-phosphatidylinositol 4,5-bisphosphate phosphodiesterase gamma-1 (P19174 whole entry, the tested form may be a part): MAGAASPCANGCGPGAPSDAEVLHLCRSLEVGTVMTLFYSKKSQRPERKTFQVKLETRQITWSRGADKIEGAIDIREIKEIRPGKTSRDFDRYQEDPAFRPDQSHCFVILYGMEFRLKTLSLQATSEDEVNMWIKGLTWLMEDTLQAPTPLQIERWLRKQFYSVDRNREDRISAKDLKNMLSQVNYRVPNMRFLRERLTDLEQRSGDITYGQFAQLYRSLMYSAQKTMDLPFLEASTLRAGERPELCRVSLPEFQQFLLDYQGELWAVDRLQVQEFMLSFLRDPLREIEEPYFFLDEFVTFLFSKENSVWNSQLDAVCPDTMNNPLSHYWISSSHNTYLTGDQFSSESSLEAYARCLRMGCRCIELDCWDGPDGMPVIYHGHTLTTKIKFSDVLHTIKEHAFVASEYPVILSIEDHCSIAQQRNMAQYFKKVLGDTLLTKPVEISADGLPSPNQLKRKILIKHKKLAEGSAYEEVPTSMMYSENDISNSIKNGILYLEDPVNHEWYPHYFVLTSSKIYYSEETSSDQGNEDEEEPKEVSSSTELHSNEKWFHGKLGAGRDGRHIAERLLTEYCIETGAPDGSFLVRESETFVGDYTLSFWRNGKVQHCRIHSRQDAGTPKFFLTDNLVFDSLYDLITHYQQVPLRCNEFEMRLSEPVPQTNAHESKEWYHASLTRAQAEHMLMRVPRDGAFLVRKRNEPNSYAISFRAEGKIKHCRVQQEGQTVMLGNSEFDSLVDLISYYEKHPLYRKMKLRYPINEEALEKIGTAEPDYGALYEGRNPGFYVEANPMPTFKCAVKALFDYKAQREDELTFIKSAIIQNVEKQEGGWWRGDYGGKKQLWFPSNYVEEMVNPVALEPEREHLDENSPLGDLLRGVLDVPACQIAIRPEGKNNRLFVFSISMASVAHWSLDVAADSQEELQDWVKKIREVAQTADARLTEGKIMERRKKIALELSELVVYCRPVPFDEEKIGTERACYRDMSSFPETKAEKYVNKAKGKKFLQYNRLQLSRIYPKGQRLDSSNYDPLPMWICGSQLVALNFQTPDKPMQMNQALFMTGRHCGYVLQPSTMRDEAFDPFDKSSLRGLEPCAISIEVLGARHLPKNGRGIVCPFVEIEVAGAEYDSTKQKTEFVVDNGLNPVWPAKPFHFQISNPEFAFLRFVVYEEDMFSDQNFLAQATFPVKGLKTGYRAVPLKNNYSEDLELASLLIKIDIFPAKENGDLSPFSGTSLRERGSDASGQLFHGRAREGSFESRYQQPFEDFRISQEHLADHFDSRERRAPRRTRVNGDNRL

[19] = inhibition of ARNT PAS-B/TACC3 complex formation – biochemical, AlphaScreen, cherry-picked samples, confirmation (AID 651703); format: functional, Homo sapiens;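 further: His-tagged ARNT PAS-B domain paired with GST-TACC3 E629A dimer coactivator fragment; potency of inhibitors that break up the complex and lower AlphaScreen signal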

In the case of `O=C(Nc1ccccc1OC(=O)c1ccc(Cl)cc1)c1ccc(Cl)cc1`, the IC50 [1] is reported as 7.96 µM (active), the EC50 (H4) is reported as 13.7 µM (active) and the EC50 [2] is reported as > 120 µM (not active). The EC50 [3] was 4.89 µM (active), the EC50 [4] was > 29.9 µM (inactive) and the IC50 [5] was > 9.97 µM (active). For the same compound, the EC50 [6] was 15.7 µM (inactive).
For `C=CCOc1ccccc1C(=O)/C=C1/C(=O)Nc2ccccc21`, the IC50 [7] was 3.58 µM (active).
In the case of `CSc1nc(SCC(=O)O)c2c3c(sc2n1)COC(C)(C)C3`, the IC50 (Coagulation factor XII) is reported as > 50 µM (inactive), the IC50 (Beta-lactamase [8]) is reported as > 59.6 µM (inactive) and the IC50 (Beta-lactamase [9]) is reported as > 59.6 µM (inactive). The IC50 (Beta-lactamase [10]) was > 59.6 µM (inactive).
For `Cc1cc(C)cc(NC(=O)CCc2nc(O)c3c4c(sc3n2)CCCC4)c1`, the AC50 [11] was 37.5 µM (active) and the AC50 [12] was 0.91 µM (active).
For `O=C(Nc1ccc(C(F)(F)F)cc1)c1ccc(NC(=O)C2CCCO2)cc1` (configuration not stated), the IC50 (Beta-lactamase [13]) was > 59.6 µM (inactive) and the IC50 (Beta-lactamase [14]) was 47.5 µM (inactive).
For `Cc1cccc(OC(C)C(=O)Nc2nc(-c3ccncc3)cs2)c1` (configuration not stated), the AC50 (Vero) was 35.8 µM (active).
With `Nc1ccc2c(c1)C(=NO)c1cc([N+](=O)[O-])ccc1-2` the IC50 [15] was 3.12 µM (active) and the IC50 [16] was 18.1 µM (active).
With `CN(C(=O)c1ccccc1)C1c2c(ccc3ccccc23)OCC1CO` (configuration not stated) the IC50 [17] was > 122 µM (inactive) and the IC50 [18] was > 122 µM (inactive).
For `COC(=O)C(CC#Cc1ccc2c(c1)[C@]1(C(=O)N2)[C@H](c2ccc(O)cc2)N2[C@H](c3ccccc3)[C@H](c3ccccc3)OC(=O)[C@H]2[C@@H]1C(=O)N1CCCCCCC1)C(=O)OC`, the AC50 [19] was 104 µM (active).
